These results are taken from patent US5795899A, “Soluble salts of 4-amino-2-(4,4-dimethylimidazolidin-2-on-1-yl) pyrimidine-5-carboxylic acid N-methyl-N-(3-trifluoromethylphenyl)-amide, a process for the preparation thereof, the use thereof as pharmaceuticals and starting materials” (Hoechst Aktiengesellschaft, priority 1992, dated 1998).

For data set [1], the system named is mouse leukemia cells, L 1210. Briefly: MTT assay, inhibition of cell proliferation, L1210. Format: cell-based. As to conditions: 72 hours incubation. As to the method:
(§1) The reduced inhibitory effect on cell proliferation was tested on exponentially growing animal (mouse leukemia cells, L 1210) and human (bronchial carcinoma cells, A 549; colon carcinoma cells, HT 29) tumor cells. This entailed the tumor cells being incubated in RPMI standard medium with various concentrations of the test substances for 72 hours. Cell incubations only in fresh medium served as control. Incubations were set up in quadruplet. […] After incubation for a further 7 to 24 hours, the cell supernatant was carefully removed and the formazan dye in the cells was solubilized by adding DMSO and measured quantitatively by photometry at 492 nm. The ratio of the extinction of the substance incubations to the control incubation was quantified. The coefficient of variation in each incubation series was less than 15%. The following Table 6 indicates the IC50 values (IC50 [μg/ml] is the concentration of the test substance per ml which is necessary for 50% inhibition) from these investigations.

The test system of data set [2] is carbohydrate-induced hypertriglyceridemia. Briefly: Inhibition of carbohydrate-induced hypertriglyceridemia. Format: in vivo, male Sprague-Dawley rats. As to conditions: 1 mg/kg/day. How it is done: Groups of in each case 10 male Sprague-Dawley rats (supplied by the breeder Mollegard with a weight of 250-280 g) received on each of 4 consecutive days one administration of the compound dissolved in PEG 400 by gavage. In addition, after the 3rd administration and 8 and 24 hours later they received 2.5 g of fructose/kg, likewise by gavage. Moreover, after the 3rd administration of product, 50% strength fructose solution was offered to them as drinking water ad libitum, and the food was withdrawn. Retroorbital removal of blood, from which the serum was obtained for the triglyceride determination and VLDL preparation in the ultracentrifuge (flotation at d=1.006), took place 3 hours after the last product/fructose administration. The food received by the animals from 1 week before the 1st administration and up to the 3rd administration was a diet with 40% casein in the feed meal.
The animals develop, as a result of this treatment, a hypertriglyceridemia which approximately corresponds to Fredrickson phenotype IV in humans. The serum triglycerides of the normal animals increased from 0.54 to 1.1 mmol/l, and the VLDL triglycerides from 0.67 to 1.81.

Data set [3] relates to tumor cells (L 1210, A 549, HT 29). Kind of data set: Cell proliferation inhibition (MTT assay), overall statement. Format: cell-based, mouse and human. As to the method:
as §1

The nature of a further data set: physchem. As to conditions: water.
The subject of data set [4] is LDL receptor mRNA in human hepatocytoma cell line HepG2. Briefly: LDL receptor mRNA expression on HepG2 cells (Northern blot). Format: cell-based. As to conditions: FIG. 2. How it is done:
The HepG2 cells were previously incubated in MEM standard medium which contained 10% fetal calf serum with and without hydrochloride of the compound I (10^-6 M) for 16 hours.
Lipoprotein-deficient serum (LPDS) was in this case prepared by ultracentrifugation by a standard process (Goldstein, J. L., Basu, S. K and Brown, M. S., Methods Enzymol. 98, 241 (1983)). The MRNA in the […] was prepared in analogy to the method described above.
The mRNA was prepared by the method described by Chomczynski, P. and Sacchi, N. in Anal. Biochem. 162, 156 (1987). […] The filters were subsequently exposed on Cronex 4 films (Dupont) in the presence of an intensifying screen at -70° C. overnight or for up to 14 days, and the hybridization signals were quantified from the intensity of blackening of the film using a commercially available laser densitometer. Subsequently, the quotient was determined from the intensity of the LDL receptor band and of the actin band as internal standard to correct for variations in yield. […]

On to `CN(C(=O)c1cnc(N2CC(C)(C)NC2=O)nc1N)c1cccc(C(F)(F)F)c1.Cl` [Compound I as hydrochloride, 4-amino-2-(4,4-dimethyl-2-oxo-1-imidazolidinyl)pyrimidine-5-carboxylic acid N-methyl-N-(3-trifluoromethylphenyl)amide hydrochloride], for which the IC50 in data set [1] was found to be 13.4 µg/mL. In data set [2], the “Inhibition of the increase in the VLDL triglycerides (in words)” value was “almost one half”. Further, the “Proliferation inhibition compared with imanixil (HOE 402) / its hydrochloride (in words)” value in data set [3] is given as “must be given at a considerably higher dose in order to have the same proliferation-inhibiting effect”. For the same molecule, the solubility in the data set “physchem” amounted to 430 mg/mL. For the same molecule, the “Overinduction of LDL receptor mRNA in lipoprotein-deficient serum compared with whole serum” value in data set [4] (10^-6 M, 16 hours) is recorded as “further by the same factor as was observed on stimulation in whole serum”. The “Dependence of LDL receptor mRNA stimulation on cholesterol supply level” value in data set [4] (whole serum and lipoprotein-deficient serum) was “does not depend on the cholesterol "supply level"”.
